# Assay results taken from patent US10709724B2, “Methods of treating mitochondrial dysfunction” (Ecole Polytechnique Federale de Lausanne (EPFL), priority 2011, dated 2020).
# Values joined by “and” are separate entries in the source; they are usually repeats but may differ in a detail not shown here. Equal entries are not always repeated. “Also recorded” adds a separate entry of the source.
# Columns and labels:
# GPR109A = target: T1, GPR109A (Homo sapiens, UniProt Q8TDS4); format: cell-based; conditions: GPR109A-expressing Chem-4 cells
# T1 construct: host or cells: Chem-4 cells (Ready-to-Assay GPR109A Nicotinic Acid Receptor Cells)
# Method: GPR109A—Calcium Mobilization Assay. Ready-to-Assai™ GRP109A Nicotinic Acid Receptor Cells were used to measure calcium mobilization as specified by the manufacturer (Millipore). Calcium flux was determined using excitation at 340 and 380 nm in a fluorescence spectrophotometer (Victor X4, Perkin Elmer) in a 180 seconds time course, adding the ligand at 60 seconds. Internal validation was made using 0.1% Triton X-100 for total fluorophore release and 10 mM EGTA to chelate free calcium. Similarly, GPR109A specificity was internally validated using control cells devoid of GRP109A overexpression. Liver triglyceride measurement Liver triglycerides were measured from 20 mg of liver tissue using a variation of the Folch method, as described in Bai et al. (Bai et al., PARP-2 regulates SIRT1 expression and whole-body energy expenditure. (2011). Cell Metab 13, 450-460.
# C57Bl/6J mice = test: NAD+ content in mouse tissues after one week of supplemented chow; format: in vivo; conditions: 400 mg/kg/day in chow; for muscle NAD+ content: quadriceps
# Method: Animal Experiments. […] In other animal experiments, 8 weeks-old male C57Bl/6J mice were purchased from Charles River and powder chow (D12450B) and high fat (D12492) diets were from Research Diets Inc (New Brunswick, N.J., USA). 80 ml of water per kg of powder CD were used to make food pellets. 40 ml of water per kg of powder HFD were used to make food pellets. […] Mice were housed separately, had ad libitum access to water and food and were kept under a 12 h dark-light cycle. Mice were fed with homemade pellets from 10 weeks of age. […] All animal experiments were carried out according to local national and EU ethical guidelines. To monitor body weight, mice were weighed and the food consumption was measured each week on the same day. In case of PJ34 treatment, mice received each 12 h (at 7:00 and 19:00) 10 mg/kg PJ34 by intraperitoneal injection for 5 continuous days. In all studies animals were killed (at 14:00) either after CO2 inhalation or cervical dislocation after 6 h of fasting (starting at 8:00), and tissues were collected and processed as specified below. […] Plasma insulin and was determined in heparinized plasma samples using specific ELISA kits (Mercodia). Blood samples were collected in heparinized tubes and plasma was isolated after centrifugation. Plasma parameters were measured using a Cobas c111 (Roche Diagnostics). […] The respiratory quotient was the ratio of CO2 production over O2 consumption. During actimetry, beamline crossings were summarized each 15 minutes.
# NAD^+ NAM Determination. NAD^+ levels in cultured cells were determined using a commercial kit (Enzychrom™, BioAssays Systems, CA). […] 70 L of ice-cold 7% perchloric acid was then added and the sample was vortexed and sonicated three times, then centrifuged. Clear supernatant was removed and neutralized by additions of 3 M NaOH and 1 M phosphate buffer (pH=9), then centrifuged. Clear supernatant was injected onto HPLC C-18 column with 20 mM ammonium acetate eluent to separate NAD^+ and NAM from other cellular components, NAD^+ and NAM peaks (260 nm absorbance) were collected. Collections were lyophilized to dryness and subjected to MALDI-TOF analysis. […] Corrections were applied for isotopic abundance.
# C2C12 myotubes = test: Intracellular NAD+ content in C2C12 myotubes treated with PARP inhibitors; format: cell-based
# Method: Cell Culture, Transfection, Adenoviral Infection and Mitochondrial Characterization. HEK293T, MEF and C2C12 cells were cultured in DMEM (4.5 g/l glucose, 10% FCS). PARP-1^+/+ and PARP-1^−/− MEFs were prepared as described in (Menissier-de Murcia et al., 1997). SIRT1 and MEFs were kindly provided by Fred Alt (Chea et al., 2005). SIRT3 MER were established according to standard techniques from conditional SERT3^−/− mice. (Picard, F., Gehin, M., Annicotte, J., Rocchi, S., Champy, M. F., O'Malley, B. W., Chambon, P., and Auwerx, J. (2002). SRC-1 and TIF2 control energy balance between white and brown adipose tissues. Cell 111, 931-941.) Deletion of the SIRT3 gene was induced via infection with adenovirus encoding for the Cre recombinase. HEK293T cells were transfected using JetPei reagent (Polyplus Transfections, Illkirch, France) according to the manufacturer's instructions. C2C12 cells were differentiated in DMEM (4.5 g/L glucose, 2% horse serum) after reaching confluency for 2 days, followed by 2 days of PJ34 treatment (10 μM). PARP-1 shRNA constructs were described in (Shah et al., 2005). Human PARP-1 and siRNAs were obtained from Dharmacon (Thermo Scientific). The adenovirus encoding for FLAG-HA-PGC-1α, control and SIRT1 shRNAs were a kind gift from Pere Puigserver and were used (MOI=100) in C2C12 myotubes as described (Canto et al., 2009). Mitochondrial charge determination was performed as described (Bai et al., 2001) and DNA strand breaks were quantified by TUNEL assays according to the manufacturer's instructions (Millipore).
# NAD^+ NAM Determination. NAD^+ levels in cultured cells were determined using a commercial kit (Enzychrom™, BioAssays Systems, CA). For tissue samples NAD^+ and NAM levels were determined as described in (Sauve et al., 2005). In brief, to a weighed aliquot of frozen pulverized tissue we added as standards, ^18O-NAD^+ (typically 2.00 nmol) and ^18O-NAM (typically 2.00 nmol). 70 L of ice-cold 7% perchloric acid was then added and the sample was vortexed and sonicated three times, then centrifuged. Clear supernatant was removed and neutralized by additions of 3 M NaOH and 1 M phosphate buffer (pH=9), then centrifuged. Clear supernatant was injected onto HPLC C-18 column with 20 mM ammonium acetate eluent to separate NAD^+ and NAM from other cellular components, NAD^+ and NAM peaks (260 nm absorbance) were collected. Collections were lyophilized to dryness and subjected to MALDI-TOF analysis. For NAD^+ measurement, ratio of intensities for m/z=664 and 666 peaks, corresponding to ^16O- and ^18O-NAD^+ isotopomers, was multiplied by 2.00 nmol and then divided by tissue weight to determine NAD+ concentration in the sample. For NAM the ratio of intensities for m/z=123 and 125 peaks, corresponding to ^16O- and ^18O-NAM isotopomers, was multiplied by 2.00 nmol and then divided by tissue weight to determine NAM concentration in the sample. Corrections were applied for isotopic abundance. Other NAD metabolites were determined as previously described (Yang and Sauve, Synthesis of nictotinamide riboside and derivatives: effective agents for increasing nictinomide adenine dinucleotide concentrations in mammalian cells. J Med Chem 50, 6458-6461 (2006)).
# C. elegans [1] = test: Worm respiration assay (Seahorse XF24); format: in vivo; conditions: day 3 adult worms
# Method: (§1) Worm Respiration Assays Oxygen consumption was measured using the Seahorse XF24 equipment (Seahorse Bioscience Inc., North Billerica, Mass.) as described in Yamamoto et al. Typically, 200 animals per conditions were recovered from NGM plates with M9 medium, washed three times in 2 mLM9 to eliminate residual bacteria, and resuspended in 500 μL M9 medium. Worms were transferred in 24-well standard Seahorse plates (#100777-004) (50 worms per well) and oxygen consumption was measured 6 times. Respiration rates were normalized to the number of worms in each individual well. NAD measurement by HPLC For NAD+ quantification, approximately 1000 worms were collected in M9 buffer, washed five times to remove residual bacteria and flash-frozen in liquid nitrogen and stored at −80° C. until analysis. Extraction was started by adding 250 μl of 1.6M perchloric acid on frozen samples, followed by extensive homogenization in a Qiagen tissuelyser, and centrifugation at 20.000 g for 15 min. The supernatant was recovered and neutralized with a 3M potassium carbonate solution. After centrifugation, 100 μl of supernatant was filtered and used for NAD measurement using an HPLC system (Agilent) with a Supelco LC-18-T column (Sigma), as described in Yoshino et al. (Yoshino, K. F. Mills, M. J. Yoon, S. Imai, Nicotinamide Mononucleotide, a Key NAD(+) Intermediate, Treats the Pathophysiology of Diet- and Age-Induced Diabetes in Mice. Cell Metab 14, 528 (2011)).
# C. elegans [2] = test: Confocal microscopy of mitochondria in body wall muscle (pmyo-3::mito::GFP reporter); conditions: in vivo
# Method: Confocal Microscopy and Image Processing Worms were immobilized with 6 mM solution of tetramisole hydrochloride (Sigma, Buchs, Switzerland) in M9 and mounted on 6% agarose pads on glass slides. Images of worms were acquired using Zeiss LSM 700 Upright confocal microscope (Carl Zeiss AG, Oberkochen, Germany) under non-saturating exposure conditions. All the snapshots were taken from the same part of C. elegans: muscles from the upper part of the worm, excluding the regions of oesophagus and vulva. For each condition multiple worms were observed and imaged. Image processing was performed with the Fiji software. One of the critical issues during the imaging process was the position of the worm, as it influences the level of background. For the uniformity of the represented images, contrast and brightness were adjusted in order, to eliminate the undesirable background signal. Neither of these manipulations was affecting the mitochondrial shape. Tracing of the mitochondrial network contour was done by the use of Gaussian blur filter followed by the application of Laplacian operator.
# C. elegans [3] = test: NAD measurement by HPLC in worms; format: in vivo; conditions: day 4 of adulthood
# Method: as §1, with “After centrifugation, 100 μl of supernatant was filtered and used for NAD measurement using an HPLC system (Agilent) with a Supelco LC-18-T column (Sigma), as described in Yoshino et al. (Yoshino, K. F. Mills, M. J. Yoon, S. Imai, Nicotinamide Mononucleotide, a Key NAD(+) Intermediate, Treats the Pathophysiology of Diet- and Age-Induced Diabetes in Mice. Cell Metab 14, 528 (2011)).” left out
# C. elegans [4] = test: Quantitative RT-PCR in worms; format: in vivo
# Method: mRNA and mtDNA Analysis. Total RNA was prepared using TRIzol (Invitrogen) according to the manufacturer's instructions. RNA was treated with DNase, and 2 μg of RNA was used for reverse transcription (RT). cDNA was purified on QIAquick PCR cleanup columns (Qiagen, Valencia, Calif., USA). 50× diluted cDNA was used for RT-quantitative PCR (RT-VCR) VCR) reactions (Bai et al., 2007). The RT-qPCR reactions were performed using the Light-Cycler system (Roche Applied Science) and a qPCR Supermix (Qiagen) with the primers for mice summarized in Table 1 and 4, and with the primers for worms summarized on Table 7. mtDNA quantification was performed as described (Lagouge et al., 2006) with the primers indicated in Table 2 and 5.
# C. elegans [5] = test: Worm lifespan analysis; format: in vivo; conditions: for variation compared to control (%): vs N2 + water
# Method: Worm Lifespan Analysis Lifespan tests were performed as described in Mouchiroud et al (L. Mouchiroud et al., Pyruvate imbalance mediates metabolic reprogramming and mimics lifespan extension by dietary restriction in Caenorhabditis elegans. Aging Cell 10, 39 (2011)). Briefly, 60-100 animals were used per conditions and scored every other day. All lifespan experiments were performed at 20° C. […] Animals were exposed to compounds during the full life from eggs until death. To ensure a permanent exposure to the compound, plates were changed twice a week. All the compounds used in this study were dissolved in a water stock solution.
# T1 sequence (Q8TDS4 whole entry): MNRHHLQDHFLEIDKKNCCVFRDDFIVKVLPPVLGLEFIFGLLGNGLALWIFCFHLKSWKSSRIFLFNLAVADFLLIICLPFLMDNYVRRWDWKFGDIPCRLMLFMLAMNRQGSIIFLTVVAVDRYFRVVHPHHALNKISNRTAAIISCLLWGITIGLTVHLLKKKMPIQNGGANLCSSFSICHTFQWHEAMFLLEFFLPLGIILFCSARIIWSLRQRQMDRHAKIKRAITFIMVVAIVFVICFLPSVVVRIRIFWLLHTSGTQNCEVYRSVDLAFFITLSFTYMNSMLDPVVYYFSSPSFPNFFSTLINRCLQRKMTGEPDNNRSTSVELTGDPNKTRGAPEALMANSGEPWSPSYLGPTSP
smiles,measurement,setting,value
"NC(=O)c1ccc[n+]([C@@H]2O[C@H](COP(=O)([O-])O)[C@@H](O)[C@H]2O)c1 [NMN, nicotinamide mononucleotide, reference compound]",GPR109A activation (calcium flux),GPR109A,did not activate GPR109A
same,NAD+ levels in liver,C57Bl/6J mice,increased NAD^+ levels in liver
same,muscle NAD+ content,C57Bl/6J mice,only NR and NA significantly enhanced muscle NAD^+ content
O=C1N=C2SCC=C2c2ccccc21 [TIQ-A],intracellular NAD+ content upon PARP inhibition,C2C12 myotubes,confirmed the increase in NAD^+ content
"O=C(O)c1cccnc1 [NA, nicotinic acid, reference compound]",muscle NAD+ content,C57Bl/6J mice,significantly enhanced muscle NAD^+ content
"NC(=O)c1cccnc1 [NAM, nicotinamide]",oxygen consumption (respiration),C. elegans [1],increased respiration; also recorded: Oxygen consumption was increased
same,mitochondrial content in body wall muscle,C. elegans [2],increase muscle mitochondrial content; also recorded: increased mitochondrial content in body wall muscle
same,mitochondrial morphology in body wall muscle,C. elegans [2],affect mitochondrial morphology
same,NAD+ levels in C. elegans,C. elegans [3],increased NAD+ levels
same,"expression of genes of mitochondrial oxidative metabolism (cts-1, cox-4)",C. elegans [4]; day 3 of adulthood,trend for increased cts-1 expression
same,daf-16 expression,C. elegans [4]; in vivo,without affecting daf-16 mRNA levels; also recorded: daf-16 was unchanged
same,sod-3 expression,C. elegans [4]; in vivo,significantly higher sod-3 expression; also recorded: expression of sod-3 was increased
same,increase of worm lifespan,C. elegans [5]; FIG. 39B,18%
same,mean lifespan ± SE,"C. elegans [5]; N2, 200 nM",23.5 ± 1.03 days
same,variation compared to control (%),"C. elegans [5]; N2, 200 nM",+18.1%
same,mean lifespan ± SE,"C. elegans [5]; N2, 500 nM",22.6 ± 0.92 days
same,variation compared to control (%),"C. elegans [5]; N2, 500 nM",+13.5%
same,mean lifespan ± SE,"C. elegans [5]; N2, 1000 nM",21.8 ± 0.85 days
same,variation compared to control (%),"C. elegans [5]; N2, 1000 nM",+9.5%
same,lifespan in sir-2.1(ok434) mutant / sir-2.1 dependence,C. elegans [5]; sir-2.1(ok434) mutant worms,sir-2.1-dependent fashion
same,lifespan,C. elegans [5]; wild type N2 worms,extended lifespan
C[C@]1(c2nc3c(C(N)=O)cccc3[nH]2)CCCN1 [ABT-888],lifespan extension,C. elegans [5]; 100 nM (FIG. 34B),15%
same,mean lifespan ± SE,"C. elegans [5]; N2, 100 nM, listed as ABT",22.3 ± 1.01 days and 22.5 ± 1.05 days
same,mean lifespan ± SE,"C. elegans [5]; N2, 500 nM",22.1 ± 1.20 days
same,variation compared to control (%),"C. elegans [5]; N2, 500 nM",+13.9%
same,mean lifespan ± SE,"C. elegans [5]; N2, 1000 nM",20.0 ± 1.23 days
same,variation compared to control (%),"C. elegans [5]; N2, 1000 nM",+3.6%
